Test results as given in patent US20090048214A1, “Methods for Treating Renal Tumors Using 2, 4-Pyrimidinediamine Drug and Prodrug Compounds” (RIGEL PHARMACEUTICALS, INC, priority 2006, published 2009).

Legend:
[1] = system: A498 renal carcinoma cells; test: A498 renal carcinoma subcutaneous xenograft study; type: in vivo, NCR nu/nu female mice
Description: NCR nu/nu female mice (8-9 weeks old, Harlan Laboratories, Madison, Wis.) were injected subcutaneously on the right hind flank with 5×10^7 A498 renal carcinoma cells in a 50:50 mixture of cells in PBS and Matrigel® (Cat# 356234, LDEV negative, BD Biosciences, Boston, Mass.). Tumor growth was determined by measuring the tumor in two dimensions (L×W) with electronic calipers (Ultra Cal IV, Fred V Fowler Co, Newton, Mass.). Volume was calculated using Study Director Animal Study Management Software (Studylog Systems, South San Francisco, Calif.) as follows: V=(L×W^2)/2,where L and W are the tumor length and width, respectively. Animals were randomized by stratified tumor size and treatment was initiated when the average tumor size was approximately 82 mm^3 (Study Day 0, 17 days post-injection). Test compound was administered ad libitum in the feed as a formulation of 0, 0.5, 2, or 3 g Compound A per kg of AIN-76A rodent diet (Research Diets, Inc, New Brunswick, N.J.). Animals were weighed and tumors measured twice weekly from the day of cell injection to study termination.

[2] = system: RXF-393 kidney tumor fragments; test: RXF-393 renal carcinoma orthotopic xenograft study; type: in vivo, Nu/nu mice; details: for median tumor weight: following 16 days of treatment, vehicle 485 mg
Description: RXF-393 kidney tumor fragments were implanted intrarenally into Nu/nu mice. On days 5-20 post-implantation animals were fed the Research Diet chow containing Compound A at the following dose levels: 0 g/kg (control), 0.5 g/kg (expected dose 75 mg/kg/day), 2.0 g/kg (expected dose 300 mg/kg/day), or 3.0 g/kg (expected dose 450 mg/kg/day). Tumors were allowed to grow orthotopically, body weights were measured twice weekly, and the animals were sacrificed on Day 23. Both the implanted kidney and the unimplanted kidney were weighed, and the tumor weight is expressed as the difference in kidney weights for each animal.

[3] = detailed in US2006/0211657 A1; cited from earlier work

COc1cc(Nc2ncc(F)c(Nc3ccc4c(n3)N(COP(=O)(O)O)C(=O)C(C)(C)O4)n2)cc(OC)c1OC [Compound A]
Mean body weights ([1]; 0, 0.5, 2.0, 3.0 g Compound A/kg feed groups): not different among the groups | effect on tumor growth, dose dependence ([1]; 0.5, 2.0, 3.0 g Compound A/kg feed): dose-dependent effect on tumor growth was observed | %T/C ([1]; 2.0 g Compound A/kg feed, Day 23): 62% | mean tumor volume ([1]; 2.0 g Compound A/kg feed, by Day 23, control 665, p>0.05): 485 mm^3 | mean tumor volume ([1]; 3.0 g Compound A/kg feed ad libitum, after 24 days of treatment, vehicle 665, p<0.05): 372 mm^3 | median change in tumor volume, treated relative to control (% T/C) ([1]; 3.0 g Compound A/kg feed, after 24 days of treatment): 35% | reduction in tumor weight vs vehicle ([2]; high (3 g/kg) and mid (2 g/kg) dose groups, 16 days of treatment): ~10 fold | median tumor weight ([2]; high dose 3 g/kg food (450 mg/kg/dose), p<0.0001): 63 mg | reduction in median tumor weight compared with vehicle ([2]; low dose group (75 mg/kg/dose, 0.5 g Compound A/kg food)): approximately 25% | median tumor weight ([2]; mid dose 2 g/kg food (300 mg/kg/dose), p<0.0006): 74 mg | metabolism of prodrug in vivo [3]: metabolize in vivo to the corresponding active 2,4-pyrimidinediamine compound, Compound 1
